Source: US8080579B2, “Compositions and methods for treatment of inflammatory bowel disease” (The Regents of The University of Michigan, priority 2005, dated 2011)

Experiments:
[1] = tested on: angiotensin converting enzyme (ACE); experiment: IEL ACE mRNA by real time PCR, short bowel syndrome model; assay type: in vivo, mice; conditions: enalaprilat 0.6 mg/kg/day i.p., 7 days
Experimental: (§1) Short Bowel Syndrome Model: A 70% mid-small bowel resection was performed (i.e. bowel between 3.5 cm distal to the ligament of Treitz and 3.5 cm proximal to the ileocecal valve), followed by an end-to-end jejuno-ileal anastomosis with 7-0 monofilament, absorbable suture. Postoperatively a subcutaneous bolus of 3 ml 0.9% saline solution was given to maintain hydration status.
(§2) Sham operation: Mid-small bowel was transsected and re-anastomosed without bowel-resection.
IEL purification: Isolation of purified IEL from EC was performed by direct magnetic separation. Magnetic beads conjugated with antibody to CD45 (pan-lymphoid marker) were used to segregate IEL from EC (BioMag SelectaPure Anti-Mouse CD 45R Antibody Particles, Polyscience Inc., Warrington, Pa.). Magnetic separation was performed twice to further deplete EC. […]
Real time PCR: Real-time PCR was run to better quantify actual changes in ACE expression. cDNA was also used for real time PCR. The same primers for ACE and β-actin were used as for conventional PCR, SYBR Green I was utilized for fluorescence. […] Ct-values of ACE and β-actin were converted to numbers of cDNA copies, and results expressed as the ratio of ACE over β-actin expression.
(§3) To further understand the relevance of ACE expression on EC apoptosis, ACE-inhibition was used. […] After 1 week, mice were killed, EC apoptotic rates assessed, and IEL mRNA and protein isolated.

[2] = tested on: intestinal epithelial cells; experiment: Epithelial cell proliferation (BrdU), short bowel syndrome model; assay type: in vivo, mice; conditions: FIG. 11
Experimental: Epithelial cell proliferation: Mice were given a dose of bromodeoxyuridine (BrdU) 1 to 2 hours prior to sacrifice. Tissues harvested from the intestine were subsequently stained for BrdU as a marker of cellular proliferation.

TNF-α = experiment: IEL TNF-α mRNA by RT-PCR, short bowel syndrome model; assay type: in vivo; conditions: Sham operated mice, enalaprilat 0.6 mg/kg/day i.p., 7 days
Experimental: as §1, §2
(§4) IEL purification: Isolation of purified IEL from EC was performed by direct magnetic separation. Magnetic beads conjugated with antibody to CD45 (pan-lymphoid marker) were used to segregate IEL from EC (BioMag SelectaPure Anti-Mouse CD 45R Antibody Particles, Polyscience Inc., Warrington, Pa.). […]
Reverse transcriptase polymerase chain reaction (RT-PCR): mRNA (poly-A positive) was reversed transcribed into cDNA following a standard protocol. […] Gel bands were analyzed by DNA sequencing to ensure the correct product. Kodak EDAS System (Rochester, N.Y.) was used for imaging and quantification. Results were expressed as the ratio of the investigated mRNA over the β-actin mRNA expression.
as §3

[3] = tested on: angiotensin converting enzyme (ACE); experiment: IEL ACE protein by immunoblot, short bowel syndrome model; assay type: in vivo, mice; conditions: enalaprilat 0.6 mg/kg/day i.p., 7 days
Experimental: as §1, §2, §4
Immunoblot analysis: Protein was extracted from isolated IEL and immunoblots performed by using a Bio-Rad protein assay kit (Bio-Rad Laboratories, Hercules, Calif.), with standard methods. […] Expression for β-actin was determined in the same fashion by re-probing membranes with purified anti-mouse β-actin (1:12000, Sigma-Aldrich, St. Louis, Mo.). Results are expressed as the ratio of ACE over β-actin protein expression.
as §3

SMILES: C[C@H](N[C@@H](CCc1ccccc1)C(=O)O)C(=O)N1CCC[C@H]1C(=O)O [ACE-I, enalaprilat]
- IEL ACE mRNA (ratio of ACE-cDNA copies over β-actin-cDNA copies) ([1]; SBS mice): 0.63 ± 0.25
- IEL ACE mRNA (ratio of ACE-cDNA copies over β-actin-cDNA copies) ([1]; Sham operated mice): 0.66 ± 0.22
- Epithelial cell proliferation [2]: increase significantly
- IEL TNF-α mRNA (ratio over β-actin mRNA) (TNF-α): 0.37 ± 0.07
- IEL ACE protein (ratio of ACE over β-actin protein expression) ([3]; SBS mice): 0.14 ± 0.03
- IEL ACE protein (ratio of ACE over β-actin protein expression) ([3]; Sham operated mice): 0.13 ± 0.01
